Laboratory results: the supplement of paper PMC11061612

Assays:
Experiment in all cases: combination Emax (second highest fraction inhibited in the dose matrix, 72 h); higher = more inhibition; extreme values may be limits of the assay
[1] = system: B-CPAP (Thyroid Gland Carcinoma)
Summary of the method: (§1)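 Cell lines grown in DMEM/F12 or RPMI with 10% FBS were plated in 1536-well plates and held 24 hours at 37°C, 5% CO2 before 72 hours of exposure to two-drug dose matrices, with DMSO typically at 0.2%. CellTiter-Glo 2.0 luminescence gave viability, which was converted to inhibition. Vehicle wells were set to 0 and blank wells to 1. Combination Emax is the second-highest inhibition in the matrix, and Bliss excess is the observed combination effect minus the expected EA + EB − EA·EB, where EA and EB are the single-agent effects.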

[2] = system: CCRF-CEM (T-Lymphoblastic Leukemia)
Summary of the method: as §1

[3] = system: DEL (T-Cell Non-Hodgkin's Lymphoma)
Summary of the method: as §1

ES4 (Ewing's Sarcoma) = system: ES4 (Ewing's Sarcoma)
Summary of the method: as §1

[4] = system: HCC1806 (Breast Carcinoma)
Summary of the method: as §1

HOS (Osteosarcoma) = system: HOS (Osteosarcoma)
Summary of the method: as §1

[5] = system: HT-1376 (Bladder Carcinoma)
Summary of the method: as §1

[6] = system: Hs-578-T (Breast Carcinoma)
Summary of the method: as §1

[7] = system: KP-1N (Pancreatic Carcinoma)
Summary of the method: as §1

[8] = system: KURAMOCHI (Ovarian Carcinoma)
Summary of the method: as §1

[9] = system: LS-180 (Colorectal Carcinoma)
Summary of the method: as §1

[10] = system: ME-1 (Acute Myeloid Leukemia)
Summary of the method: as §1

[11] = system: RC-K8 (B-Cell Non-Hodgkin's Lymphoma)
Summary of the method: as §1

[12] = system: RO82-W-1 (Thyroid Gland Carcinoma)
Summary of the method: as §1

[13] = system: SK-ES-1 (Ewing's Sarcoma)
Summary of the method: as §1

[14] = system: SNU-5 (Gastric Carcinoma)
Summary of the method: as §1

T98G (Glioblastoma) = system: T98G (Glioblastoma)
Summary of the method: as §1

[15] = system: TCCSUP (Bladder Carcinoma)
Summary of the method: as §1

[16] = system: TE-15 (Esophageal Squamous Cell Carcinoma)
Summary of the method: as §1

[17] = system: UM-UC-3 (Bladder Carcinoma)
Summary of the method: as §1

SMILES	combination Emax [1]	combination Emax [2]	combination Emax [3]	combination Emax (ES4 (Ewing's Sarcoma))	combination Emax [4]	combination Emax (HOS (Osteosarcoma))	combination Emax [5]	combination Emax [6]	combination Emax [7]	combination Emax [8]	combination Emax [9]	combination Emax [10]	combination Emax [11]	combination Emax [12]	combination Emax [13]	combination Emax [14]	combination Emax (T98G (Glioblastoma))	combination Emax [15]	combination Emax [16]	combination Emax [17]
Cc1c2c(nn1C)CSCc1cc(n(C)n1)CSc1cc(c3ccccc3c1)OCCCc1c(C(=O)O)n(C)c3c-2c(Cl)ccc13 [AZD5991] + CC1(C)CCC(CN2CCN(c3ccc(C(=O)NS(=O)(=O)c4ccc(NCC5CCOCC5)c([N+](=O)[O-])c4)c(Oc4cnc5[nH]ccc5c4)c3)CC2)=C(c2ccc(Cl)cc2)C1 [Venetoclax] (first compound max 1 µM, 7x7, partner max 1 µM)	0.18	0.787	1	0.147	0.596	0.509	0.142	0.774	0.119	0.501	0.191	1	0.185	0.255	1	0.147	0.283	0.157	0.173	0.171
Cc1c2c(nn1C)CSCc1cc(n(C)n1)CSc1cc(c3ccccc3c1)OCCCc1c(C(=O)O)n(C)c3c-2c(Cl)ccc13 [AZD5991] + CCN(CCO)CCCOc1ccc2c(Nc3cc(CC(=O)Nc4cccc(F)c4)[nH]n3)ncnc2c1 [AZD2811] (first compound max 1 µM, 7x7, partner max 1 µM)	0.313	0.999	1	0.219	0.776	0.238	0.243	0.81	0.234	0.376	0.342	0.733	0.379	0.274	1	0.204	0.585	0.321	0.826	0.266
Cc1c2c(nn1C)CSCc1cc(n(C)n1)CSc1cc(c3ccccc3c1)OCCCc1c(C(=O)O)n(C)c3c-2c(Cl)ccc13 [AZD5991] + CN(C)CCCOc1ccc(-c2ccc3ncc4c(c3c2)n(C2CCOCC2)c(=O)n4C)cn1 [AZD0156] (first compound max 1 µM, 7x7, partner max 1 µM)	0.237	0.48	1	0.238	0.833	0.278	0.196	0.585	0.229	0.359	0.196	0.803	0.314	0.265	0.817	0.255	0.283	0.162	0.188	0.211
Cc1c2c(nn1C)CSCc1cc(n(C)n1)CSc1cc(c3ccccc3c1)OCCCc1c(C(=O)O)n(C)c3c-2c(Cl)ccc13 [AZD5991] + C[C@@H]1COCCN1C2=NC(=NC(=C2)C3(CC3)[S@](=N)(=O)C)C4=C5C=CNC5=NC=C4 [AZD6738] (first compound max 1 µM, 7x7, partner max 10 µM)	0.522	1	1	0.885	0.961	0.789	0.455	0.891	0.279	0.634	0.707	0.798	0.781	0.525	1	0.942	0.875	0.648	0.736	0.401
Cc1c2c(nn1C)CSCc1cc(n(C)n1)CSc1cc(c3ccccc3c1)OCCCc1c(C(=O)O)n(C)c3c-2c(Cl)ccc13 [AZD5991] + Cc1cc2ncnn2cc1Nc1ncc2c(n1)n(C1CCOCC1)c(=O)n2C [AZD7648] (first compound max 1 µM, 7x7, partner max 10 µM)	0.365	0.52	1	0.229	0.515	0.287	0.221	0.63	0.279	0.331	0.256	0.755	0.425	0.376	0.813	0.347	0.361	0.25	0.235	0.226
NC1(C(=O)N[C@@H](CCO)c2ccc(Cl)cc2)CCN(c2ncnc3[nH]ccc23)CC1 [Capivasertib] + CC(=O)c1c(C)c2cnc(Nc3ccc(N4CCNCC4)cn3)nc2n(C2CCCC2)c1=O [Palbociclib] (first compound max 10 µM, 7x7, partner max 10 µM)	0.523	0.798	0.892	0.412	0.516	0.504	0.144	0.676	0.451	0.29	0.61	0.257	0.435	0.218	0.655	0.379	0.6	0.317	0.568	0.491
NC1(C(=O)N[C@@H](CCO)c2ccc(Cl)cc2)CCN(c2ncnc3[nH]ccc23)CC1 [Capivasertib] + CC(C)n1c(=O)n(C)c2cnc3cc(F)c(-c4ccc(OCCCN5CCCCC5)nc4)cc3c21 [AZD1390] (first compound max 10 µM, 7x7, partner max 0.3 µM)	0.261	0.457	0.44	0.277	0.267	0.41	0.144	0.682	0.254	0.294	0.33	0.237	0.224	0.244	0.448	0.43	0.449	0.321	0.387	0.311
NC1(C(=O)N[C@@H](CCO)c2ccc(Cl)cc2)CCN(c2ncnc3[nH]ccc23)CC1 [Capivasertib] + CCN(CCO)CCCOc1ccc2c(Nc3cc(CC(=O)Nc4cccc(F)c4)[nH]n3)ncnc2c1 [AZD2811] (first compound max 10 µM, 7x7, partner max 1 µM)	0.394	1	0.859	0.422	0.378	0.408	0.156	0.732	0.288	0.332	0.312	0.199	0.53	0.215	0.974	0.499	0.437	0.389	0.449	0.298
NC1(C(=O)N[C@@H](CCO)c2ccc(Cl)cc2)CCN(c2ncnc3[nH]ccc23)CC1 [Capivasertib] + COc1nnc2ccc(N3CCC(c4ccc(OCCN5CCN(C)C(=O)[C@H]5C)cc4)CC3)nn12 [AZD5153] (first compound max 10 µM, 7x7, partner max 1 µM)	0.723	0.905	0.893	0.624	0.556	0.632	0.108	0.887	0.621	0.776	0.694	0.402	0.761	0.362	0.789	0.564	0.699	0.35	0.693	0.411
NC1(C(=O)N[C@@H](CCO)c2ccc(Cl)cc2)CCN(c2ncnc3[nH]ccc23)CC1 [Capivasertib] + C[C@@H]1COCCN1C2=NC(=NC(=C2)C3(CC3)[S@](=N)(=O)C)C4=C5C=CNC5=NC=C4 [AZD6738] (first compound max 10 µM, 7x7, partner max 10 µM)	0.719	0.983	1	0.851	0.947	0.844	0.377	0.823	0.323	0.535	0.825	0.277	0.775	0.215	0.876	0.919	0.867	0.685	0.879	0.53
NC1(C(=O)N[C@@H](CCO)c2ccc(Cl)cc2)CCN(c2ncnc3[nH]ccc23)CC1 [Capivasertib] + Cn1cnc2c(F)c(Nc3ccc(Br)cc3Cl)c(C(=O)NOCCO)cc21 [Selumetinib] (first compound max 10 µM, 7x7, partner max 10 µM)	0.499	0.485	0.578	0.398	0.595	0.491	0.18	0.746	0.393	0.444	0.771	0.342	0.367	0.277	0.429	0.756	0.49	0.373	0.633	0.533
Cc1nc(Nc2ncc(C(=O)Nc3c(C)cccc3Cl)s2)cc(N2CCN(CCO)CC2)n1 [Dasatinib] + CC(=O)Nc1cccc(-n2c(=O)n(C3CC3)c(=O)c3c(Nc4ccc(I)cc4F)n(C)c(=O)c(C)c32)c1 [Trametinib] (first compound max 2 µM, 7x7, partner max 1 µM)	0.79	0.149	0.433	0.215	0.624	0.397	0.241	0.922	0.478	0.937	0.747	0.375	0.124	0.436	0.24	0.654	0.744	0.266	0.782	0.685
COc1cc2ncnc(Nc3ccc(F)c(Cl)c3)c2cc1OCCCN1CCOCC1 [Gefitinib] + CC(C)n1c(=O)n(C)c2cnc3cc(F)c(-c4ccc(OCCCN5CCCCC5)nc4)cc3c21 [AZD1390] (first compound max 10 µM, 7x7, partner max 0.3 µM)	0.108	0.054	0.187	0.3	0.436	0.0904	0.177	0.319	0.004	0.128	0.292	0.199	0.105	0.164	0.341	0.178	0.12	0.114	0.762	0.0932
